Test results taken from US9636418B2 (priority 2013, dated 2017).
Values joined by “and” are separate entries in the source; they are usually repeats but may differ in a detail not shown here. Identical values can stand only once.

What was measured:
Assay in all cases: cell-based
hNav1.7 = hNav1.7 (Homo sapiens, UniProt Q15858); conditions: IonWorks Quattro; read-out: IC50 Nav1.7
hNav1.4 = hNav1.4 (Homo sapiens, UniProt P35499); conditions: for IC50: IonWorks Quattro, read-out: IC50 Nav1.4; for Nav1.4/Nav1.7: ratio of IonWorks Quattro IC50 values
Chain of hNav1.4 (P35499 whole entry): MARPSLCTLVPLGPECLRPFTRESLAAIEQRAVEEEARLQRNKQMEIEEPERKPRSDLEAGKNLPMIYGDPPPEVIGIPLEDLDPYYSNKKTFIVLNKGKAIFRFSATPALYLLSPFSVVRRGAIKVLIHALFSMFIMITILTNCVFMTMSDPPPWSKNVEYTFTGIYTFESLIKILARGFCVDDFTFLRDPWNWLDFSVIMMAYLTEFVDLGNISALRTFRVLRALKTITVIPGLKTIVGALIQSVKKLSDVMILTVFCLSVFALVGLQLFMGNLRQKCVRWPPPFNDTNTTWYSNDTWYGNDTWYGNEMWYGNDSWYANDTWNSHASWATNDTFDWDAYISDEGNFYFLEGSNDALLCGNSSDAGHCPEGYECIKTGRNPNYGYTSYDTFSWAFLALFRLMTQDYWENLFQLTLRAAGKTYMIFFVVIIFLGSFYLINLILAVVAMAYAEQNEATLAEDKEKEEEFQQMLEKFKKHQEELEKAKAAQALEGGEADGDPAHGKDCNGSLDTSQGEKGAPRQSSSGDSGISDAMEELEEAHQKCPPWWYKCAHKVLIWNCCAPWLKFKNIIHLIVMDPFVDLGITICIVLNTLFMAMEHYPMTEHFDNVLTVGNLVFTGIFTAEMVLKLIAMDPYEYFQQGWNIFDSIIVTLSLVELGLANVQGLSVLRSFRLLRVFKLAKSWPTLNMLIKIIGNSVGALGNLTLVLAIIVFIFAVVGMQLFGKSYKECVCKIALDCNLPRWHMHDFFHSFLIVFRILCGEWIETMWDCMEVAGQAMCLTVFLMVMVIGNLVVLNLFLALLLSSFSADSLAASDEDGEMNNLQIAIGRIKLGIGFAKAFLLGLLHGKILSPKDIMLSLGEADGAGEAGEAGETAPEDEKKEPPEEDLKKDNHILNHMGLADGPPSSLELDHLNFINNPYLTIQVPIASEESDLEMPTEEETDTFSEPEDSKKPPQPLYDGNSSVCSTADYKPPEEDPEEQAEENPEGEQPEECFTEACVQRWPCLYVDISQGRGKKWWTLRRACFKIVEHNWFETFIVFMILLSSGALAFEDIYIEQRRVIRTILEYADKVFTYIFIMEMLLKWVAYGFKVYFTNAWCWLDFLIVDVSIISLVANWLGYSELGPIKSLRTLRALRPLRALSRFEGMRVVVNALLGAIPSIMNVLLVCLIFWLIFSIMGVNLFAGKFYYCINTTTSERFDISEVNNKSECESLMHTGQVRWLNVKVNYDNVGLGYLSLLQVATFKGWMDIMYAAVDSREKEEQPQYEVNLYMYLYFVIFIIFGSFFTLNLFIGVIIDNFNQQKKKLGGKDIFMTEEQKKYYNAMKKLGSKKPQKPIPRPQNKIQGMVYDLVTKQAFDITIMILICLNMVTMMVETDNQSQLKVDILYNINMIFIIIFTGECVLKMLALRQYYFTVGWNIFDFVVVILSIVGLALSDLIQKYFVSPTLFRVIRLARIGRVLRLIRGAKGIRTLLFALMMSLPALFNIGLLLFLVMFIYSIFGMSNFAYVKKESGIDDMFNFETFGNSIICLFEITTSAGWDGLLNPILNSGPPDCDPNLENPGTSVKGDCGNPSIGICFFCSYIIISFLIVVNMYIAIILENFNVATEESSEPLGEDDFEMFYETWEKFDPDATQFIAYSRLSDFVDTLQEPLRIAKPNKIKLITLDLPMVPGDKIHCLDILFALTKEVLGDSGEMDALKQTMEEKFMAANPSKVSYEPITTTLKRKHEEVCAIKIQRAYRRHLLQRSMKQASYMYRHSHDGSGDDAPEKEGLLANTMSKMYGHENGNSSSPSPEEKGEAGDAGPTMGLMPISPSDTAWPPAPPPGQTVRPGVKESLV

hNav1.5 = hNav1.5 (Homo sapiens, UniProt Q14524); conditions: IonWorks Quattro; read-out: IC50 Nav1.5
hNav1.3 = hNav1.3 (Homo sapiens, UniProt Q9NY46); conditions: IonWorks Quattro; read-out: IC50 Nav1.3
Chain of hNav1.3 (Q9NY46 whole entry): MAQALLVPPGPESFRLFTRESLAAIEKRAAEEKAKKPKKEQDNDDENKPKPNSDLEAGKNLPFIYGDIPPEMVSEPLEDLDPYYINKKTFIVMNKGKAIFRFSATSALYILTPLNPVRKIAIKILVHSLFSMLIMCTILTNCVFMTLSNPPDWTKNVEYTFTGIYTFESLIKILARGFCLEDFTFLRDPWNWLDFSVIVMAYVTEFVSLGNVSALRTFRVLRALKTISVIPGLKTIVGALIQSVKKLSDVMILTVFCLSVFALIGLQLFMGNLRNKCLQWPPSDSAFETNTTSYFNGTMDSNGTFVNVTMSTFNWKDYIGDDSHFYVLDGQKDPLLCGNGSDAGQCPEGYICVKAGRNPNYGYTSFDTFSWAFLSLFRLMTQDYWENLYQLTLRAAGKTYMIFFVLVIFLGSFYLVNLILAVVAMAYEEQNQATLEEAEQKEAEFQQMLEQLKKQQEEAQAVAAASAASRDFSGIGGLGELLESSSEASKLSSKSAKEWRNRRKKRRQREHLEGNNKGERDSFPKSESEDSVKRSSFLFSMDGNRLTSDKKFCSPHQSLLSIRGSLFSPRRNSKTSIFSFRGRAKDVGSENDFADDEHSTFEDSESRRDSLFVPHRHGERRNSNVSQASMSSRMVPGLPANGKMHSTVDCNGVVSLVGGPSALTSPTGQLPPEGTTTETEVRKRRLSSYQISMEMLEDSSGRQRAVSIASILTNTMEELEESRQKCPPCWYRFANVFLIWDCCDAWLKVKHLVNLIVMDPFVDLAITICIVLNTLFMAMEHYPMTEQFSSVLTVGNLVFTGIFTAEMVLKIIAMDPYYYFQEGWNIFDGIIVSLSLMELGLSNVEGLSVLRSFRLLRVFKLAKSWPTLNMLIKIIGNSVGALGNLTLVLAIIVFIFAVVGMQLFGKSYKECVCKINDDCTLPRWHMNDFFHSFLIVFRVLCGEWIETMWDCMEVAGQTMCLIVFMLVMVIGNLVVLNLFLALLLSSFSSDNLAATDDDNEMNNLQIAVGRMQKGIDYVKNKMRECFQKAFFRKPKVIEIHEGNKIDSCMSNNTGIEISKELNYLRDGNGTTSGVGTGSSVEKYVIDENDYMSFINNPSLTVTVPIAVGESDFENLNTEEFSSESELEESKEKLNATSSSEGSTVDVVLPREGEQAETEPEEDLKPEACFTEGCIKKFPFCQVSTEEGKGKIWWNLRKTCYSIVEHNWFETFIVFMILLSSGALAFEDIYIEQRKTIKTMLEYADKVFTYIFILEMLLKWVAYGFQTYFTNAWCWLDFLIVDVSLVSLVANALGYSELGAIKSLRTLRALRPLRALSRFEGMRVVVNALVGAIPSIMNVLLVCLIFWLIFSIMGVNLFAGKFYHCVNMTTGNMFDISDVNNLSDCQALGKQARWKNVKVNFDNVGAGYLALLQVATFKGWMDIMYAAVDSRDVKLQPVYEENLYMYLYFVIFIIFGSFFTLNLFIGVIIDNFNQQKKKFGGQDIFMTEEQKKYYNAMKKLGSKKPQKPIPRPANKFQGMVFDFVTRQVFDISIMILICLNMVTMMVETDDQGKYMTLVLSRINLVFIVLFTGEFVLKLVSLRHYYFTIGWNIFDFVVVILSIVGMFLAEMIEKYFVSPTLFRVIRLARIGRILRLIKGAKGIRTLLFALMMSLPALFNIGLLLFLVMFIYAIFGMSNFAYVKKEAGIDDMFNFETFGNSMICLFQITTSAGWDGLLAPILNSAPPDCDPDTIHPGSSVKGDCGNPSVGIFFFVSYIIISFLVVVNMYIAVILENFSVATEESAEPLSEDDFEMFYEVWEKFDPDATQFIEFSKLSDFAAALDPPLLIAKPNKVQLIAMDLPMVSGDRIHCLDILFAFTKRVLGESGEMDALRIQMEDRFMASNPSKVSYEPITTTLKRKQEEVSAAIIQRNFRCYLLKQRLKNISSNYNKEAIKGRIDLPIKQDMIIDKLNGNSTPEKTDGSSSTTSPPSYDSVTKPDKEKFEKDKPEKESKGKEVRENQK

Row | Compound | IC50 (hNav1.7) | IC50 (hNav1.4) | Nav1.4/Nav1.7 (hNav1.4) | IC50 (hNav1.5) | IC50 (hNav1.3)
1 | CC[C@H](C)[C@H](NC(=O)[C@@H](NC(=O)[C@H](CCCCN)NC(=O)[C@H](CCCNC(=N)N)NC(=O)[C@@H]1CSSC[C@@H]2NC(=O)[C@H](C)NC(=O)[C@H](CCCNC(=N)N)NC(=O)[C@H](CCCCN)NC(=O)[C@H](CO)NC(=O)[C@H](CC(=O)O)NC(=O)[C@@H]3CSSC[C@H](NC(=O)[C@H](CCC(=O)O)NC(=O)[C@H](CC(C)C)NC(=O)CNC(=O)[C@H](Cc4cn(CCCOCCOCCOCCOCCOCCOCCOCCOCCOCCOCCN)nn4)NC(=O)[C@H](CSSC[C@H](NC(=O)[C@@H](N)Cc4ccc(O)cc4)C(=O)N[C@@H](CCC(N)=O)C(=O)N[C@@H](CCCCN)C(=O)N[C@@H](Cc4c[nH]c5ccccc45)C(=O)N[C@@H](CCSC)C(=O)N[C@@H](Cc4c[nH]c5ccccc45)C(=O)N[C@@H]([C@@H](C)O)C(=O)N3)NC2=O)C(=O)N[C@@H](CCCCN)C(=O)N[C@@H](CC(C)C)C(=O)N[C@@H](Cc2c[nH]c3ccccc23)C(=O)N1)[C@@H](C)CC)C(N)=O [compound 178] | 0.18 µM | > 5 µM | 28 | 15.1 µM | > 5 µM
2 | CCCC[C@@H]1NC(=O)[C@H](Cc2c[nH]c3ccccc23)NC(=O)[C@H](CCCCN)NC(=O)[C@H](CCC(N)=O)NC(=O)[C@@H](NC(=O)[C@@H](N)Cc2ccc(O)cc2)CSSC[C@@H]2NC(=O)[C@@H]3CSSC[C@@H](C(=O)N[C@@H](CCCNC(=N)N)C(=O)N[C@@H](CCCCN)C(=O)N[C@H](C(=O)N[C@H](C(N)=O)[C@@H](C)CC)[C@@H](C)CC)NC(=O)[C@H](Cc4c[nH]c5ccccc45)NC(=O)[C@H](CC(C)C)NC(=O)[C@H](CCCCN)NC(=O)[C@H](CSSC[C@H](NC(=O)[C@H](Cc4cn(CCCOCCOCCOCCOCCOCCOCCOCCOCCOCCOCCN)nn4)NC(=O)[C@H](Cc4c[nH]c5ccccc45)NC1=O)C(=O)N[C@@H](CC(=O)O)C(=O)N[C@@H](CO)C(=O)N[C@@H](CCCCN)C(=O)N[C@@H](CCCNC(=N)N)C(=O)N[C@@H](C)C(=O)N3)NC(=O)[C@H](CCCNC(=N)N)NC(=O)[C@H](CC(C)C)NC(=O)CNC(=O)[C@H](CCC(=O)O)NC2=O [compound 254] | 6.4 µM | > 7 µM |  | > 7 µM | > 7 µM
3 | CC[C@H](C)[C@H](NC(=O)[C@H](Cc1ccc(O)cc1)NC(=O)[C@H](CCCCN)NC(=O)[C@H](CCCNC(=N)N)NC(=O)[C@@H]1CSSC[C@@H]2NC(=O)[C@H](C)NC(=O)[C@H](CCCNC(=N)N)NC(=O)[C@H](CCCCN)NC(=O)[C@H](CO)NC(=O)[C@H](CC(=O)O)NC(=O)[C@@H]3CSSC[C@H](NC(=O)[C@H](CCC(=O)O)NC(=O)[C@H](CC(C)C)NC(=O)CNC(=O)[C@H](CCC(=O)O)NC(=O)[C@H](CSSC[C@H](NC(=O)[C@@H](N)Cc4ccc(O)cc4)C(=O)N[C@@H](CCC(N)=O)C(=O)N[C@@H](CCCCN)C(=O)N[C@@H](Cc4c[nH]c5ccccc45)C(=O)N[C@@H](CCSC)C(=O)N[C@@H](Cc4c[nH]c5ccccc45)C(=O)N[C@@H]([C@@H](C)O)C(=O)N3)NC2=O)C(=O)N[C@@H](CCCCN)C(=O)N[C@@H](CC(C)C)C(=O)N[C@@H](C(C)C)C(=O)N1)C(N)=O [compound 223] | > 5 µM | > 5 µM |  | > 5 µM | > 5 µM
4 | CC[C@H](C)[C@H](NC(=O)[C@@H](NC(=O)[C@H](CCCCN)NC(=O)[C@H](CCCNC(=N)N)NC(=O)[C@@H]1CSSC[C@@H]2NC(=O)[C@H](C)NC(=O)[C@H](CCCNC(=N)N)NC(=O)[C@H](CCCCN)NC(=O)[C@H](CO)NC(=O)[C@H](CC(=O)O)NC(=O)[C@@H]3CSSC[C@H](NC(=O)[C@H](C(C)C)NC(=O)[C@H](CC(C)C)NC(=O)CNC(=O)[C@H](CCC(=O)O)NC(=O)[C@H](CSSC[C@H](NC(=O)[C@@H](N)Cc4ccc(O)cc4)C(=O)N[C@@H](CCC(N)=O)C(=O)N[C@@H](CCCCN)C(=O)N[C@@H](Cc4c[nH]c5ccccc45)C(=O)N[C@@H](CCSC)C(=O)N[C@@H](Cc4c[nH]c5ccccc45)C(=O)N[C@@H]([C@@H](C)O)C(=O)N3)NC2=O)C(=O)N[C@@H](CCCCN)C(=O)N[C@@H](CC(C)C)C(=O)N[C@@H](Cc2c[nH]c3ccccc23)C(=O)N1)[C@@H](C)CC)C(N)=O [compound 120] | 0.1 µM | 3 µM | 31 | 7.1 µM | 3.37 µM
5 | CC[C@H](C)[C@H](NC(=O)[C@H](CCC(=O)O)NC(=O)[C@H](CCCCN)NC(=O)[C@H](CCCNC(=N)N)NC(=O)[C@@H]1CSSC[C@@H]2NC(=O)[C@H](C)NC(=O)[C@H](CCCNC(=N)N)NC(=O)[C@H](CCCCN)NC(=O)[C@H](CO)NC(=O)[C@H](CC(=O)O)NC(=O)[C@@H]3CSSC[C@H](NC(=O)[C@H](CCC(=O)O)NC(=O)[C@H](CC(C)C)NC(=O)CNC(=O)[C@H](CCC(=O)O)NC(=O)[C@H](CSSC[C@H](NC(=O)[C@@H](N)Cc4ccc(O)cc4)C(=O)N[C@@H](CCC(N)=O)C(=O)N[C@@H](CCCCN)C(=O)N[C@@H](Cc4c[nH]c5ccccc45)C(=O)N[C@@H](CCSC)C(=O)N[C@@H](Cc4c[nH]c5ccccc45)C(=O)N[C@@H]([C@@H](C)O)C(=O)N3)NC2=O)C(=O)N[C@@H](CCCCN)C(=O)N[C@@H](CC(C)C)C(=O)N[C@@H](Cc2c[nH]c3ccccc23)C(=O)N1)C(N)=O [compound 126] | 0.95 µM and 1.44 µM | > 5 µM | 5 and 3 | 15.8 µM and 7.5 µM | > 5 µM
6 | CSCC[C@@H]1NC(=O)[C@H](Cc2c[nH]c3ccccc23)NC(=O)[C@H](CCCCN)NC(=O)[C@H](CCC(N)=O)NC(=O)[C@@H](NC(=O)[C@@H](N)Cc2ccc(O)cc2)CSSC[C@@H]2NC(=O)[C@@H]3CSSC[C@@H](C(=O)N[C@@H](CCCNC(=N)N)C(=O)N[C@@H](CCCCN)C(=O)N[C@@H](Cc4ccc(O)cc4)C(=O)N[C@@H](CO)C(N)=O)NC(=O)[C@H](Cc4c[nH]c5ccccc45)NC(=O)[C@H](CC(C)C)NC(=O)[C@H](CCCCN)NC(=O)[C@H](CSSC[C@H](NC(=O)[C@H]([C@@H](C)O)NC(=O)[C@H](Cc4c[nH]c5ccccc45)NC1=O)C(=O)N[C@@H](CC(=O)O)C(=O)N[C@@H](CO)C(=O)N[C@@H](CCCCN)C(=O)N[C@@H](CCCNC(=N)N)C(=O)N[C@@H](C)C(=O)N3)NC(=O)[C@H](CCC(=O)O)NC(=O)[C@H](CC(C)C)NC(=O)CNC(=O)[C@H](CCC(=O)O)NC2=O [compound 244] | 0.34 µM | > 5 µM |  | > 5 µM | > 5 µM
7 | CSCC[C@@H]1NC(=O)[C@H](Cc2c[nH]c3ccccc23)NC(=O)[C@H](CCCCN)NC(=O)[C@H](CCC(N)=O)NC(=O)[C@@H](NC(=O)[C@@H](N)Cc2ccc(O)cc2)CSSC[C@@H]2NC(=O)[C@@H]3CSSC[C@@H](C(=O)N[C@@H](CCCNC(=N)N)C(=O)N[C@@H](CCCCN)C(=O)N[C@@H](Cc4ccc(O)cc4)C(=O)N[C@@H](CCCNC(N)=O)C(N)=O)NC(=O)[C@H](Cc4c[nH]c5ccccc45)NC(=O)[C@H](CC(C)C)NC(=O)[C@H](CCCCN)NC(=O)[C@H](CSSC[C@H](NC(=O)[C@H]([C@@H](C)O)NC(=O)[C@H](Cc4c[nH]c5ccccc45)NC1=O)C(=O)N[C@@H](CC(=O)O)C(=O)N[C@@H](CO)C(=O)N[C@@H](CCCCN)C(=O)N[C@@H](CCCNC(=N)N)C(=O)N[C@@H](C)C(=O)N3)NC(=O)[C@H](CCC(=O)O)NC(=O)[C@H](CC(C)C)NC(=O)CNC(=O)[C@H](CCC(=O)O)NC2=O [compound 241] | 1.2 µM | > 5 µM |  | > 5 µM | > 5 µM
8 | CC[C@H](C)[C@H](NC(=O)[C@H](Cc1ccc(O)cc1)NC(=O)[C@H](CCCCN)NC(=O)[C@H](CCCNC(=N)N)NC(=O)[C@@H]1CSSC[C@@H]2NC(=O)[C@H](C)NC(=O)[C@H](CCCNC(=N)N)NC(=O)[C@H](CCCCN)NC(=O)[C@H](CO)NC(=O)[C@H](CC(=O)O)NC(=O)[C@@H]3CSSC[C@H](NC(=O)[C@H](CCC(=O)O)NC(=O)[C@H](CC(C)C)NC(=O)CNC(=O)[C@H](CCC(=O)O)NC(=O)[C@H](CSSC[C@H](NC(=O)[C@@H](N)Cc4ccc(O)cc4)C(=O)N[C@@H](CCC(N)=O)C(=O)N[C@@H](CCCCN)C(=O)N[C@@H](CC(C)C)C(=O)N[C@@H](CCSC)C(=O)N[C@@H](Cc4c[nH]c5ccccc45)C(=O)N[C@@H]([C@@H](C)O)C(=O)N3)NC2=O)C(=O)N[C@@H](CCCCN)C(=O)N[C@@H](CC(C)C)C(=O)N[C@@H](Cc2c[nH]c3ccccc23)C(=O)N1)C(N)=O [compound 196] | > 5 µM | > 5 µM |  | > 5 µM | > 5 µM
9 | CC[C@H](C)[C@H](NC(=O)[C@H](Cc1ccc(O)cc1)NC(=O)[C@H](CCCCN)NC(=O)[C@H](CCCNC(=N)N)NC(=O)[C@@H]1CSSC[C@@H]2NC(=O)[C@H](C)NC(=O)[C@H](CCCNC(=N)N)NC(=O)[C@H](CCCCN)NC(=O)[C@H](CO)NC(=O)[C@H](CC(=O)O)NC(=O)[C@@H]3CSSC[C@H](NC(=O)[C@H](CCC(=O)O)NC(=O)[C@H](CC(C)C)NC(=O)CNC(=O)[C@H](CCC(=O)O)NC(=O)[C@H](CSSC[C@H](NC(=O)[C@@H](N)Cc4ccc(O)cc4)C(=O)N[C@@H](CCC(N)=O)C(=O)N[C@@H](CCCCN)C(=O)N[C@@H](C(C)C)C(=O)N[C@@H](CCSC)C(=O)N[C@@H](Cc4c[nH]c5ccccc45)C(=O)N[C@@H]([C@@H](C)O)C(=O)N3)NC2=O)C(=O)N[C@@H](CCCCN)C(=O)N[C@@H](CC(C)C)C(=O)N[C@@H](Cc2c[nH]c3ccccc23)C(=O)N1)C(N)=O [compound 195] | 3.8 µM | > 5 µM |  | > 5 µM | > 5 µM
